Legend:
[1] = biological target: T1, human NLRP3 (Homo sapiens (Human), UniProt Q96P20); test: Scintillation Proximity (SPA) NLRP3 Assay: displacement of 3H-MCC950; format: binding
[2] = biological target: T1, human NLRP3; test: Human PBMC NLRP3 Assay (LPS priming, ATP stimulation, cytokine measurement); format: cell-based; details: LPS priming, ATP stimulation
[3] = biological target: T1, human NLRP3; test: Human Whole Blood (hWB) NLRP3 Assay (LPS/ATP, IL-1β); format: cell-based
[4] = displacement of 3H-MCC950, read-out: SPA IC50
[5] = human PBMC, read-out: PBMC IC50
[6] = human whole blood, LPS/ATP, IL-1β, read-out: hWB IC50
[7] = hWB IC50, human whole blood, LPS/ATP, IL-1β

T1 sequence (Q96P20 whole entry): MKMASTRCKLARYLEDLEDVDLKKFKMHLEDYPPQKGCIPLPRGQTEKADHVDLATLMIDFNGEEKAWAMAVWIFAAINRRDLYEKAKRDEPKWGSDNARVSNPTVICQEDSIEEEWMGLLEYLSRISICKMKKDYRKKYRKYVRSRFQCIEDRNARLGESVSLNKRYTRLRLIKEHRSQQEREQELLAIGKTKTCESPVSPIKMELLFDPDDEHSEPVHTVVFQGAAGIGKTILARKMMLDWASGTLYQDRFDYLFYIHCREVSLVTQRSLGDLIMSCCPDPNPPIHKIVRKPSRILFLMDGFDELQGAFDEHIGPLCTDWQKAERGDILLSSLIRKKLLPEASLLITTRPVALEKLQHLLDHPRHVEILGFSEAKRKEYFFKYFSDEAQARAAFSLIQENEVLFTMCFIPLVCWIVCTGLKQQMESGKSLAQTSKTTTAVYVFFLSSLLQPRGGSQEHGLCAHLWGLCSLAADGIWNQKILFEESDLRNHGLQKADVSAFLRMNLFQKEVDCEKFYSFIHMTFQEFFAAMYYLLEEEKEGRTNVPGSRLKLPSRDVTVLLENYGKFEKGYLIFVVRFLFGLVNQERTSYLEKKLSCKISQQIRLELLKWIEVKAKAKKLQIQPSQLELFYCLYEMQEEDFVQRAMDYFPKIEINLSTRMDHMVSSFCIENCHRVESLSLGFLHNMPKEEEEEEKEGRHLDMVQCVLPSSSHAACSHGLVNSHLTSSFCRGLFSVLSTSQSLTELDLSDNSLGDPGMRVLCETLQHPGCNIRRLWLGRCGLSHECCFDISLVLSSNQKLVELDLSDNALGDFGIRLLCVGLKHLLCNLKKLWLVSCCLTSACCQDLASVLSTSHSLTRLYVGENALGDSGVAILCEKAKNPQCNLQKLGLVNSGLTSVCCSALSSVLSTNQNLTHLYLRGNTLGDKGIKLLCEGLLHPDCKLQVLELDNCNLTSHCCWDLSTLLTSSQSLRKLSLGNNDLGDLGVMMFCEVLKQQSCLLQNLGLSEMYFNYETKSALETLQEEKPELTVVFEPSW

Row | IC50 [1, 4] [nM] | IC50 [2, 5] [nM] | IC50 [3, 6] [nM] | Compound | other results
1 | < 1000 | < 10 | 2000 to 3000 | C[C@@H]1CCN(c2nnn[nH]2)C[C@H](NC(=O)C2(c3ccc(C(F)(F)F)c(F)c3O)CC2)C1 (single isomer, unassigned) [31A*, 1-(3-fluoro-2-hydroxy-4-(trifluoromethyl)phenyl)-N-(5-methyl-1-(1H-tetrazol-5-yl)azepan-3-yl)cyclopropane-1-carboxamide] | 
2 | < 1000 | < 10 | < 1000 | C[C@@H]1CCN(c2nnn[nH]2)C[C@H](NC(=O)C2(c3ccc(C(F)(F)F)c(F)c3)CC2)C1 (single isomer, unassigned) [66A*] | 
3 | < 1000 | < 10 | < 1000 | Cc1c(Cl)ccc(C2(C(=O)N[C@@H]3C[C@H](C)CCN(c4nnn[nH]4)C3)CC2)c1O (single isomer, unassigned) [21A*, 1-(4-chloro-2-hydroxy-3-methylphenyl)-N-(5-methyl-1-(1H-tetrazol-5-yl)azepan-3-yl)cyclopropane-1-carboxamide] | 
4 | < 1000 |  | < 1000 | C[C@H]1C[C@@H](NC(=O)C2(c3ccc(C(F)F)cc3O)CC2)CN(c2nnn[nH]2)C1 [Compound 48A, 1-(4-(difluoromethyl)-2-hydroxyphenyl)-N-((3R,5S)-5-methyl-1-(1H-tetrazol-5-yl)piperidin-3-yl)cyclopropane-1-carboxamide] | 
5 | < 1000 | < 10 | < 1000 | Cc1ccc(C2(C(=O)N[C@@H]3C[C@H](C)CCN(c4nnn[nH]4)C3)CC2)c(O)c1F (single isomer, unassigned) [74A*] | 
6 | < 1000 | < 10 | < 1000 | CC(C)c1ccc(C2(C(=O)N[C@@H]3C[C@H](C)CCN(c4nnn[nH]4)C3)CC2)c(O)c1 (single isomer, unassigned) [27A*, 1-(2-hydroxy-4-isopropylphenyl)-N-(5-methyl-1-(1H-tetrazol-5-yl)azepan-3-yl)cyclopropane-1-carboxamide] | 
7 | < 1000 | < 10 | < 1000 | C[C@@H]1CCN(c2nnn[nH]2)C[C@H](NC(=O)C2(c3ccc(OC(F)(F)F)cc3O)CC2)C1 (single isomer, unassigned) [62A*] | 
8 | < 1000 | < 10 | 1000 to 2000 | C[C@@H]1CCN(c2nnn[nH]2)C[C@H](NC(=O)C2(c3ccc(Cl)cc3F)CC2)C1 (single isomer, unassigned) [56A*] | 
9 | < 1000 | 10 to 100 | > 3000 | Cc1cc(Cl)cc(O)c1C1(C(=O)N[C@@H]2C[C@H](C)CN(c3nnn[nH]3)C2)CC1 [Compound 33A, 1-(4-chloro-2-hydroxy-6-methylphenyl)-N-((3R,5S)-5-methyl-1-(1H-tetrazol-5-yl)piperidin-3-yl)cyclopropane-1-carboxamide] | 
10 |  | < 10 | < 1000 | Cc1ccc(C2(C(=O)N[C@@H]3C[C@H](C)CCN(c4nnn[nH]4)C3)CC2)c(O)c1F (single isomer, unassigned) [22A*, 1-(3-fluoro-2-hydroxy-4-methylphenyl)-N-(5-methyl-1-(1H-tetrazol-5-yl)azepan-3-yl)cyclopropane-1-carboxamide] | 
11 | < 1000 |  | < 1000 | O=C(N[C@@H]1CCCCN(c2nnn[nH]2)C1)C1(c2ccc(Cl)cc2O)CC1 [Compound 52A, (R)-N-(1-(1H-tetrazol-5-yl)azepan-3-yl)-1-(4-chloro-2-hydroxyphenyl)cyclopropane-1-carboxamide] | IC50 ([1]; read-out: SPA IC50): 79 nM; IC50 ([3]; read-out: hWB IC50): 260 nM
12 | < 1000 | < 10 |  | C[C@@H]1CCN(c2nnn[nH]2)C[C@H](NC(=O)C2(c3ccc(C(F)(F)F)cc3F)CC2)C1 (single isomer, unassigned) [68A*] | 
13 | < 1000 | 100 to 500 |  | O=C(NC1CC(C(F)(F)F)CCN(c2nnn[nH]2)C1)C1(c2ccc(Cl)cc2)CC1 (racemic) [Rac-1, 1-(4-chlorophenyl)-N-[1-(1H-1,2,3,4-tetrazol-5-yl)-5-(trifluoromethyl)azepan-3-yl]cyclopropane-1-carboxamide] | 

Continued, molecule first:

Row | Compound | IC50 [1, 4] [nM] | IC50 [2, 5] [nM] | IC50 [3, 6] [nM] | other results
14 | O=C(N[C@@H]1CC[C@H]2CC[C@@H]1N2c1nnn[nH]1)C1(c2ccc(OC(F)F)cc2O)CC1 [77C*, N-((1S,2R,5S)-8-(1H-tetrazol-5-yl)-8-azabicyclo[3.2.1]octan-2-yl)-1-(4-(difluoromethoxy)-2-hydroxyphenyl)cyclopropane-1-carboxamide] | < 1000 |  |  | IC50 ([2]; PBMC IC50, human PBMC): 10 to 100 nM; IC50 [3, 7]: < 1000 nM
15 | C[C@@H]1CCN(c2nnn[nH]2)C[C@H](NC(=O)C2(c3ccc(Cl)c(F)c3O)CC2)C1 (single isomer, unassigned) [18A*, 1-(4-chloro-3-fluoro-2-hydroxyphenyl)-N-(5-methyl-1-(1H-tetrazol-5-yl)azepan-3-yl)cyclopropane-1-carboxamide] | < 1000 | < 10 | < 1000 | 
16 | O=C(N[C@@H]1CC[C@H]2CC[C@@H]1N2c1nnn[nH]1)C1(c2ccc(OC(F)(F)F)cc2O)CC1 [78C*, N-((1S,2R,5S)-8-(1H-tetrazol-5-yl)-8-azabicyclo[3.2.1]octan-2-yl)-1-(2-hydroxy-4-(trifluoromethoxy)phenyl)cyclopropane-1-carboxamide] | < 1000 |  | 2000 to 3000 | IC50 ([2]; PBMC IC50, human PBMC): 10 to 100 nM
17 | C[C@H]1CC[C@@H](NC(=O)C2(c3ccc(C(F)(F)F)cc3O)CC2)CN(c2nnn[nH]2)C1 [89A*, 1-(2-hydroxy-4-(trifluoromethyl)phenyl)-N-((3R,6S)-6-methyl-1-(1H-tetrazol-5-yl)azepan-3-yl)cyclopropane-1-carboxamide] | < 1000 | < 10 | 2000 to 3000 | 
18 | O=C(N[C@@H]1CCN(c2nnn[nH]2)C1)C1(c2ccc(Cl)cc2)CC1 (single isomer, unassigned) [Comparative Example A*, reference compound] |  |  |  | IC50 ([1]; read-out: SPA IC50): 420000 nM; IC50 ([3]; read-out: hWB IC50): > 50000 nM
19 | C[C@H]1CC[C@H](NC(=O)C2(c3ccc(C(F)(F)F)cc3O)CC2)CN(c2nnn[nH]2)C1 [89B*, 1-(2-hydroxy-4-(trifluoromethyl)phenyl)-N-((3S,6S)-6-methyl-1-(1H-tetrazol-5-yl)azepan-3-yl)cyclopropane-1-carboxamide] | < 1000 | 10 to 100 | > 3000 | 
20 | O=C(Nc1cccc(-c2ccccc2)c1)C1(c2ccc(Cl)cc2)CC1 [Comparative Example D, N-([1,1′-biphenyl]-3-yl)-1-(4-chlorophenyl)cyclopropane-1-carboxamide, reference compound] |  |  |  | IC50 ([1]; read-out: SPA IC50): 320000 nM; IC50 ([3]; read-out: hWB IC50): > 50000 nM
21 | C[C@H]1C[C@@H]2CC[C@H]([C@H](NC(=O)C3(c4ccc(C(F)(F)F)cc4)CC3)C1)N2c1nnn[nH]1 [104A*, N-((1R,2R,4R,6S)-4-methyl-9-(1H-tetrazol-5-yl)-9-azabicyclo[4.2.1]nonan-2-yl)-1-(4-(trifluoromethyl)phenyl)cyclopropane-1-carboxamide] | < 1000 |  |  | IC50 [3, 7]: 2000 to 3000 nM
22 | C[C@@H]1C[C@@H](NC(=O)C2(c3ccc(OC(F)F)cc3F)CC2)[C@H]2CC[C@@H]1N2c1nnn[nH]1 (stereo in doubt) [Compound 101A, 1-(4-(difluoromethoxy)-2-fluorophenyl)-N-(4-methyl-8-(1H-tetrazol-5-yl)-8-azabicyclo[3.2.1]octan-2-yl)cyclopropane-1-carboxamide] | < 1000 |  |  | IC50 [3, 7]: < 1000 nM
23 | C[C@H]1C[C@@H](NC(=O)C2(c3ccc(OC(F)F)cc3)CC2)[C@H]2CC[C@@H]1N2c1nnn[nH]1 (single isomer, unassigned) [35E*] | 1000 to 10000 |  | > 3000 | 
24 | COc1cc(F)c(C2(C(=O)N[C@@H]3C[C@@H](C)[C@@H]4CC[C@H]3N4c3nnn[nH]3)CC2)c(F)c1 (single isomer, unassigned) [102A*] | < 1000 |  |  | IC50 [3, 7]: < 1000 nM
25 | O=C(N[C@@H]1C[C@@H](C(F)(F)F)[C@@H]2CC[C@H]1N2c1nnn[nH]1)C1(c2ccc(Cl)cc2)CC1 (single isomer, unassigned) [103A*] |  |  |  | IC50 ([1]; SPA IC50, displacement of 3H-MCC950): < 1000 nM; IC50 [3, 7]: < 1000 nM
26 | C[C@@H]1C[C@@H](NC(=O)C2(c3ccc(C4CC4(F)F)cc3)CC2)[C@H]2CC[C@@H]1N2c1nnn[nH]1 (single isomer, unassigned) [37A*] | < 1000 |  |  | IC50 [3, 7]: 1000 to 2000 nM
27 | C[C@@H]1C[C@H](NC(=O)C2(c3ccc(OC(F)F)cc3O)CC2)[C@H]2CC[C@@H]1N2c1nnn[nH]1 [43B*, N-((1R,2S,4R,5S)-4-methy1-8-(1H-tetrazol-5-yl)-8-azabicyclo[3.2.1]octan-2-yl)-1-(4-(difluoromethoxy)-2-hydroxyphenyl)cyclopropane-1-carboxamide] | < 1000 |  | > 3000 | 
28 | C[C@@H]1C[C@H]2CC[C@@H]([C@H](NC(=O)C3(c4ccc(C(F)(F)F)cc4)CC3)C1)N2c1nnn[nH]1 [104C*, N-((1S,2R,4S,6R)-4-methyl-9-(1H-tetrazol-5-yl)-9-azabicyclo[4.2.1]nonan-2-yl)-1-(4-(trifluoromethyl)phenyl)cyclopropane-1-carboxamide] | < 1000 |  |  | IC50 [3, 7]: < 1000 nM
29 | CN(C(=O)C1(c2ccc(Cl)cc2)CC1)c1cccc(-c2nnn[nH]2)c1 [Comparative Example B2, N-(3-(1H-tetrazol-5-yl)phenyl)-1-(4-chlorophenyl)-N-methylcyclopropane-1-carboxamide, reference compound] |  |  |  | IC50 ([1]; read-out: SPA IC50): 200000 nM; IC50 ([3]; read-out: hWB IC50): > 50000 nM
30 | C[C@@H]1CC(NC(=O)C2(c3ccc(OC(F)F)cc3O)CC2)[C@H]2CC[C@@H]1N2c1nnn[nH]1 (single isomer, unassigned) [43A*] | < 1000 |  |  | IC50 [3, 7]: < 1000 nM
31 | C[C@@H]1CCN(c2nnn[nH]2)C[C@H](NC(=O)C2(c3ccc(C(F)F)cc3)CC2)C1 (single isomer, unassigned) [5A*, 1-(4-(difluoromethyl)phenyl)-N-(5-methyl-1-(1H-tetrazol-5-yl)azepan-3-yl)cyclopropane-1-carboxamide] | < 1000 | 10 to 100 |  | 

— patent US20260007684A1, “AMIDE DERIVATIVES FOR INHIBITING NLRP3 AND USES THEREOF” (Ventus Therapeutics U.S., Inc., priority 2023, published 2026)
